Results on five compounds are retold here after patent publication US20070043084A1, “1,2-Diarylimidazoles useful as inhibitors of cox” (Astellas Pharma Inc., priority 2003, published 2007).

Data set [1] concerns the target T1, COX-I (Homo sapiens, UniProt P23219).
T1 construct: Fresh blood was collected by syringe without anticoagulants from volunteers with consent; from tissue; host or cells: fresh human whole blood from volunteers, no anticoagulant, left to clot
Briefly: Whole blood assay for COX-I (TXB2 production). In kind it is cell-based. The conditions noted are these: 1 hr at 37° C. The protocol: [B] Inhibiting Activity Against COX-I and COX-II (Whole Blood Assay): (i) Test Method: Whole Blood Assay for COX-I
Fresh blood was collected by syringe without anticoagulants from volunteers with consent. The subjects had no apparent inflammatory conditions and had not taken any medication for at least 7 days prior to blood collection.
500 μl aliquots of human whole blood were immediately incubated with 2 μl of either dimethyl sulfoxide vehicle or a test compound at final concentrations for 1 hr at 37° C. to allow the blood to clot. Appropriate treatments (no incubation) were used as blanks. At the end of the incubation, 5 μl of 250 mM Indomethacin was added to stop the reaction. The blood was centrifuged at 6000×g for 5 min at 4° C. to obtain serum. A 100 μl aliquot of serum was mixed with 400 μl methanol for protein precipitation. The supernatant was obtained by centrifuging at 6000×g for 5 min at 4° C. and was assayed for TXB2 using an enzyme immunoassay kit according to the manufacturer's procedure. For a test compound, the results were expressed as percent inhibition of thromboxane B2(TXB2) production relative to control incubations containing dimethyl sulfoxide vehicle.
The data were analyzed by that a test compound at the indicated concentrations was changed log value and was applied simple linear regression. IC50 value was calculated by least squares method.

The subject of data set [2] is adjuvant arthritis in rats. Briefly: Analgesic activity: effect on adjuvant arthritis in rats (Randall-Selitto pain threshold). The class given is in vivo, Lewis rats. The conditions noted are these: dose 3.2 mg/kg; ratio of threshold pressure of treated vs non-treated arthritic rats, 2 hrs after administration; ratio of 1.5 = effective dose.
For data set [3], the target named is T2, COX-II (Homo sapiens, UniProt P35354).
T2 construct: lipopolysaccharide for 24 hrs at 37° C. for induction of COX-II; from tissue; host or cells: fresh heparinized human whole blood from volunteers, stimulated with LPS for 24 hrs
T2 sequence (P35354 18-604): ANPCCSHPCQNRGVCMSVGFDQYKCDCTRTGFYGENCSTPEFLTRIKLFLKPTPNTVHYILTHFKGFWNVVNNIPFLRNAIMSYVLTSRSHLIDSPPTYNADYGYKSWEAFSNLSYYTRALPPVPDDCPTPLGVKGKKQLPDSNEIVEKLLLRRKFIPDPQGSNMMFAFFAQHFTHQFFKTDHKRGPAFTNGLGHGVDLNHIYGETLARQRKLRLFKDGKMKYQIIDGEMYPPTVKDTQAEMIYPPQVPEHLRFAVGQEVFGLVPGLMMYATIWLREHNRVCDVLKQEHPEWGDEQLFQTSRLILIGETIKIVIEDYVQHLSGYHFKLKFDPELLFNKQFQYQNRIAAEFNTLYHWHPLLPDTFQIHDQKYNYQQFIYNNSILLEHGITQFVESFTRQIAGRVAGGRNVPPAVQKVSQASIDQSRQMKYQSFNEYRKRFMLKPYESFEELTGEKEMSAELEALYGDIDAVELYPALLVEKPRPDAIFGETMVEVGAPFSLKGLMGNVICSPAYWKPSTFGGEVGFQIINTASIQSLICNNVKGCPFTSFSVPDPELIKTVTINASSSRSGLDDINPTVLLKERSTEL
Briefly: Whole blood assay for COX-II (LPS-induced PGE2 production). In kind it is cell-based. Conditions: lipopolysaccharide 24 hrs at 37° C. The protocol:
Whole Blood Assay for COX-II
Fresh blood was collected in heparinized tubes by syringe from volunteers with consent. The subjects had no apparent inflammatory conditions and had not taken any medication for at least 7 days prior to blood collection.
500 μl aliquots of human whole blood were incubated with either 2 μl dimethyl sulfoxide vehicle or 2 μl of a test compound at final concentrations for 15 min at 37° C. This was followed by incubation of the blood with […] of 5 mg/ml lipopolysaccharide for 24 hrs at 37° C. for induction of COX-II. Appropriate PBS treatments (no LPS) were used as blanks. At the end of the incubation, the blood was centrifuged at 6000×g for 5 min at 4° C. to obtain plasma. A 100 μl aliquot of plasma was mixed with 400 μl methanol for protein precipitation. The supernatant was obtained by centrifuging at 6000×g for 5 min at 4° C. and was assayed for prostaglandin E2 (PGE2) using a radioimmunoassay kit after conversion of PGE2 to its methyl oximate derivative according to the manufacturer's procedure.
For a test compound, the results were expressed as percent inhibition of […] production relative to control incubations containing dimethyl sulfoxide vehicle. The data were analyzed by that a test compound at the indicated concentrations was changed log value and was applied simple linear regression. IC50 value was calculated by least squares method.

T1 sequence (P23219 24-599): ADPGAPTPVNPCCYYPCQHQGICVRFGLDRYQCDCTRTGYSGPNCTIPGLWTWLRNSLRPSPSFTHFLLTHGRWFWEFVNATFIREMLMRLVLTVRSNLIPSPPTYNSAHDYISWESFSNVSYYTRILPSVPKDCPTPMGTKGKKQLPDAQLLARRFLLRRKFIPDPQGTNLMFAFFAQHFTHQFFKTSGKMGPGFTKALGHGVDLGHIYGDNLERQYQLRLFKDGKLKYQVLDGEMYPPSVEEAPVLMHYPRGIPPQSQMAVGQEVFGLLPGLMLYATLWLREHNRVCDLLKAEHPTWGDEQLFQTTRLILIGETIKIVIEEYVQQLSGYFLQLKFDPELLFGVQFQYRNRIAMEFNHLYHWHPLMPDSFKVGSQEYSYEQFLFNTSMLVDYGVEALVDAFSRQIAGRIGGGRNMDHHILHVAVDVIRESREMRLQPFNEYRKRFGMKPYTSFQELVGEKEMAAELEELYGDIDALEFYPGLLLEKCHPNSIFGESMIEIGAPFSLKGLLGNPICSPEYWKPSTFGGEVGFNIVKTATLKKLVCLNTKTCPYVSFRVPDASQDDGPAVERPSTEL

The compound `COc1ccc(-c2nc(C(F)F)cn2-c2ccc(C#N)cc2)cn1` [Example 40, 1-(4-Cyanophenyl)-4-difluoromethyl-2-(2-methoxy-5-pyridinyl)-1H-imidazole] had a melting point of 160 to 161 °C. In data set [1], this compound displayed an IC50 of under 10 nM. Further, in data set [2], the “The coefficient of analgesic” value is on record as over 1.5. In addition, in data set [3], the IC50 is at least 100 nM.

In turn, `COc1ccc(-n2cc(C(F)(F)F)nc2-c2ccc(OC)nc2)cc1` [Example 3-2, 1-(4-Methoxyphenyl)-2-(2-methoxy-5-pyridinyl)-4-trifluoromethyl-1H-imidazole] gave a melting point of 90 to 92 °C. In data set [1], this compound came in with an IC50 of under 10 nM. Besides, in data set [2], the “The coefficient of analgesic” value is reported as over 1.5. This compound yielded an IC50 in data set [3] of at least 100 nM.

Regarding `COc1ccc(-c2nc(C#N)cn2-c2ccc(OC)cc2)cc1.Cl` [Example 11, 4-Cyano-1-(4-methoxyphenyl)-2-(4-methoxyphenyl)-1H-imidazole hydrochloride], the melting point is 142 to 143 °C. Moreover, the IC50 in data set [1] was under 10 nM. Besides, in data set [2], the “The coefficient of analgesic” value is on record as over 1.5. The compound also gave an IC50 in data set [3] of at least 100 nM.

The compound `COc1ccc(-c2nc(C(F)(F)F)cn2-c2ccc(C#N)cc2)cc1` [Example 24, 1-(4-Cyanophenyl)-2-(4-methoxyphenyl)-4-trifluoromethyl-1H-imidazole] registered a melting point of 146 to 148 °C. Besides, the IC50 in data set [1] was under 10 nM. For the same compound, in data set [2], the “The coefficient of analgesic” value is recorded as over 1.5. This compound also registered an IC50 in data set [3] of at least 100 nM.

Consider `COc1ccc(-n2cc(C(F)F)nc2-c2ccc(OC)nc2)cc1` [Example 43, 4-Difluoromethyl-1-(4-methoxyphenyl)-2-(2-methoxy-5-pyridinyl)-1H-imidazole], for which the melting point was 106 to 107 °C. This compound also returned an IC50 in data set [1] of under 10 nM. Further, the “The coefficient of analgesic” value in data set [2] is given as over 1.5. This compound also registered an IC50 in data set [3] of at least 100 nM.
